{"source": "patent US9526729B2", "about": "“Medicament for treating peripheral neuropathies” (priority 2013, dated 2016)", "key": {"viral polymerase": {"target": "viral polymerase (Human herpesvirus 1, UniProt P04293)", "sequence (P04293 whole entry)": "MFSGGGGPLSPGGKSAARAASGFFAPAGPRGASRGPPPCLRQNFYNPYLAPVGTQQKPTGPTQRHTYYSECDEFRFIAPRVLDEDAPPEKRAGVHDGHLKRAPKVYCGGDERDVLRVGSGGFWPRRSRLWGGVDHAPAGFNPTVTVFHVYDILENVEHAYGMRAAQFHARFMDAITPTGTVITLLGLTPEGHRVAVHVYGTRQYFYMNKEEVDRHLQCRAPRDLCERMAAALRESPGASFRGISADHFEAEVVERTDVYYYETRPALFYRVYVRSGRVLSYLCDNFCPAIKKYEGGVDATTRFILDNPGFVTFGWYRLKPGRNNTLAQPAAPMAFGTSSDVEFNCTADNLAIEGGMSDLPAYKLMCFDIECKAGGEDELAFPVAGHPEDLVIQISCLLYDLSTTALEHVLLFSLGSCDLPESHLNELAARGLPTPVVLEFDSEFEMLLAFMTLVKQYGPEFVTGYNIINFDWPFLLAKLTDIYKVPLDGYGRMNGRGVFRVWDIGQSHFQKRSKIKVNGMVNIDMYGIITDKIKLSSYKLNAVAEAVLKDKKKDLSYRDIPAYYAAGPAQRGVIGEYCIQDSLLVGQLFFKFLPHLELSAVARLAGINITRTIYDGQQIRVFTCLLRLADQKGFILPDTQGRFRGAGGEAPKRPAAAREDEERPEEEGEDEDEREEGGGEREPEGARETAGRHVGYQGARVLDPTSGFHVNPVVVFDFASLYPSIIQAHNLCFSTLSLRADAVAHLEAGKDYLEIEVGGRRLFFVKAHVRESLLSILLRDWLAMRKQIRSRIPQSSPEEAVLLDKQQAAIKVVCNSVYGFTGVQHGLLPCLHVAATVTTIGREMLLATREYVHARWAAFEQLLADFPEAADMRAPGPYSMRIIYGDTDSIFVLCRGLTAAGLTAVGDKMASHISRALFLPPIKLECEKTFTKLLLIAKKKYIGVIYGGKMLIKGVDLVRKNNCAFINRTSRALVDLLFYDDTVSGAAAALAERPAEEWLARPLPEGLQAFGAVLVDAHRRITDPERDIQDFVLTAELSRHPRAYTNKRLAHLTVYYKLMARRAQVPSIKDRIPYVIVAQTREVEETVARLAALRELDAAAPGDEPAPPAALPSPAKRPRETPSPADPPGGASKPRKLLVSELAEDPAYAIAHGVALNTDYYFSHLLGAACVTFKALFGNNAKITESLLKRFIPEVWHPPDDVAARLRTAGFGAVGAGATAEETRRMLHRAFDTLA", "conditions": "cited from earlier work"}, "[1]": {"test_system": "recurrent erythema multiforme", "conditions": "continuous acyclovir therapy; double-blind trial in 1995 (Tatnall); cited from earlier work"}, "[2]": {"test_system": "Herpes simplex virus (HSV)", "assay": "Clinical cases of alopecia due to HSV infection", "assay_type": "in vivo, human"}, "[3]": {"test_system": "Herpes simplex virus (HSV)", "assay": "Clinical cases of QTT-positive HSV-associated dermatitis treated with antiviral agent", "assay_type": "in vivo, human", "from_the_text": "Step 100: Checking a potential disease (D) relates to a dermatosis or a non-skin disease. For example, some questions are given for the patient and the skin of the patient is checked by an experienced inspector or a medical staff to determine if a potential disease (D) had by the patent relates to a dermatosis or a non-skin disease. If the potential disease (D) relates to a dermatosis, the inspector or the medical staff will take some tissue samples from an affected part of a patient's skin, as illustrated in step 101, and the test in step 102 for testing the tissue samples from the patient's skin will continue. If the disease (D) relates to a non-skin disease, the inspector or the medical staff takes a tissue sample from a specific part, such as peripheral blood, skin, bone marrow, mucosa, saliva, cerebrospinal fluid, amniotic fluid, brain tissue, tears or skin secretions, of the patient, as illustrated in step 103, based on the method for testing the tissue sample in step 104, and then the test in step 104 for testing the tissue samples from the specific part of the patient will continue.\n(§1) Step 102: Performing a Quick Tzanck Test (QTT) process. The QTT process can be applied to the tissue samples from the patient's skin so as to reveal some histopathological changes from the QTT sample, i.e. the tissue samples from the patient's skin, by using a microscope. The inspector or the medical staff can observe the histopathological changes to diagnose HSV infection.\nStep 106: Treating an anti-HSV treatment of, for example, prescribing an anti-HSV medicine or an anti-HSV cream for the patient. The patient may take the anti-HSV medicine to cure the HSV infection. Alternatively, the patient may apply the anti-HSV cream onto the affected part of the patient's skin.\n(§2) 1. Adult: Valacyclovir (500 mg) • a. 2 tablets daily (i.e. 1 tablet after breakfast and dinner) for 5-7 days. • b. 3 tablets daily (i.e. every 8 hours) for severe cases in the beginning only."}, "[4]": {"test_system": "Herpes simplex virus (HSV)", "assay": "Clinical cases of diabetic skin complications (psoriasiform plaques induced by HSV infection)", "assay_type": "in vivo, human", "conditions": "Acyclovir (400 mg) 3 tablets daily for 10 days then 2 tablets daily for 10 days + NBUVB + Gr. I and III topical CS; 7 days afterwards", "from_the_text": "(§3) Step 104: Performing an antibody testing or a PCR techniques on the tissue sample from the specific part of the patient. The antibody testing, such as the HSV IgG testing, the cytomegalovirus immunoglobulin G (CMV IgG) testing or the non-specific immunoglobulin E (IgE) testing is adapted to be performed on a peripheral blood, acting as the tissue sample, of the patient. The PCR testing is adapted to be performed on peripheral blood, skin, bone marrow, mucosa, saliva, cerebrospinal fluid, amniotic fluid, brain tissue, tears or skin secretions, acting as the tissue sample, of the patient. The antibody testing or PCR techniques may be referred to the description in the section of “Diagnosis of HSV Infection”. The normal titer for CMV IgG/HSV IgG is less than 2 and the normal titer for non-specific IgE is less than 170 IU/ml. When the tissue sample from peripheral blood of the patient has a titer for CMV IgG/HSV IgG greater than 2, the process of “anti-HSV treatments” in step 106 is then carried out. Otherwise, the step 108 of “other treatments” is carried out. Alternatively, when the result of detecting the tissue sample via the PCR techniques is positive, the process of “anti-HSV treatments” in step 106 is then carried out; when the result of detecting the tissue sample via the PCR techniques is negative, the step 108 of “other treatments” is carried out.\n1. […]"}, "viral thymidine kinase": {"target": "viral thymidine kinase (Human herpesvirus 1, UniProt P0DTH5)", "sequence (P0DTH5 whole entry)": "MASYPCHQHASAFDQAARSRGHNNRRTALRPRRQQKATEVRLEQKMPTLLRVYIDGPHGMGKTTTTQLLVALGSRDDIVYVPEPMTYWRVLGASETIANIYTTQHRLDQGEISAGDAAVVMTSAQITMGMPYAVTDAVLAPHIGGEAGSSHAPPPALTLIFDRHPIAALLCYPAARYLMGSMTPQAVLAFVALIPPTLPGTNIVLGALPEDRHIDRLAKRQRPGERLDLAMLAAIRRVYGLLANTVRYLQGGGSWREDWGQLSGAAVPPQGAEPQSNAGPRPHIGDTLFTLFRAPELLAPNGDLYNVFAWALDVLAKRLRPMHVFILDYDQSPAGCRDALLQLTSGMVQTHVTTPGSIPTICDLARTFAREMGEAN", "conditions": "conversion into acyclo-guanosine monophosphate; cited from earlier work"}, "[5]": {"test_system": "Herpes simplex virus (HSV)", "assay": "Clinical cases of chilblain induced by HSV infection", "assay_type": "in vivo, human", "conditions": "for clinical outcome, red swollen fingers with pain: 2nd case of chilblain", "from_the_text": "as §1, §3, §2"}, "[6]": {"test_system": "Herpes simplex virus (HSV)", "assay": "Clinical cases of impetigo induced by HSV infection", "assay_type": "in vivo, human", "conditions": "for clinical outcome, skin lesions: Acyclovir G. 10 mg/kg 4 times a day for 7 days + anti-allergic agents", "procedure": "as §1, with “The” for “Step 102: Performing a Quick Tzanck Test (QTT) process. The”\nas §2"}, "[7]": {"test_system": "Herpes simplex virus (HSV)", "assay": "Clinical cases of pyoderma gangrenosum induced by HSV infection", "assay_type": "in vivo, human"}, "[8]": {"test_system": "Herpes simplex virus (HSV)", "assay": "Clinical cases of acne induced by HSV infection", "assay_type": "in vivo, human", "conditions": "for clinical outcome, symptoms: 7 days later", "procedure": "as §1, §2\nConsequently, the treatment in the present invention of acne may comprise a cream or an ointment mixed by an Anti-HSV agent to put on the affected part of the patient, wherein the Anti-HSV agent comprises Valacyclovir or Acyclovir. For example, the ADO ointment used in this invention contains acyclovir, lidocaine and diclofenac."}, "[9]": {"conditions": "CASE 7, with anti-allergic agent and antibiotic ointment, 9 days later"}}}
{"smiles": "Nc1nc2c(ncn2COCCOP(=O)(O)OP(=O)(O)OP(=O)(O)O)c(=O)[nH]1", "note": "[Acyclo-GTP, acyclo-guanosine triphosphate]", "values": [{"measurement": "greater affinity for viral than cellular polymerase", "setting": "viral polymerase", "result": "approximately 100 times"}]}
{"smiles": "Nc1nc(O)c2ncn(COCCO)c2n1", "note": "[Acyclovir, 2-Amino-1,9-dihydro-9-((2-hydroxyethoxy)methyl)-6H-purin-6-one]", "values": [{"measurement": "suppression of recurrent erythema multiforme", "setting": "[1]", "result": "completely suppressed"}, {"measurement": "clinical outcome, vesicopapules and pustules on back", "setting": "[2]; 1st case of alopecia and acne-like eruption, after the treatment", "result": "only a few vesicopapules and pustules on their back"}, {"measurement": "hair regrowth", "setting": "[2]; 1st case of alopecia, Acyclovir (400 mg) 3 tablets daily for 10 days and 2 tablets daily for 14 days + anti-allergic agent + Gr. III topical CS, 23 days later", "result": "Small white hairs appeared especially over central portion"}, {"measurement": "clinical outcome, vesiculopapules and plaques", "setting": "[3]; CASE 6, QTT positive, 2 days later", "result": "nearly no vesiculopapules and plaques over their trunk and upper extremity"}, {"measurement": "clinical outcome, earlier similar eruptions", "setting": "[3]; Case 8, 5-7 days of acyclovir granules, 7 and 9 months ago", "result": "Completely disappearance of similar eruptions"}, {"measurement": "clinical outcome, psoriasiform plaques", "setting": "[4]", "result": "Some lesions disappeared and the scaling of the psoriasiform plaques decreased a lot"}, {"measurement": "effectiveness of viral thymidine kinase in phosphorylation versus cellular thymidine kinase", "setting": "viral thymidine kinase", "result": 3000, "unit": "times"}, {"measurement": "clinical outcome, swelling, pain, erosion", "setting": "[5]; 1st case of chilblain, Acyclovir 200 mg 3 tablets daily for 7 days, 7 days later", "result": "The swelling and pain decreased a lot. The erosion improved"}, {"measurement": "clinical outcome, skin lesions", "setting": "[6]; 1st case of impetigo, antibiotics, 9 days later", "result": "only some erythema on their mandible and some small red erosions over right cheek"}, {"measurement": "clinical outcome, lesion", "setting": "[6]; 2nd case of impetigo, Acyclovir G. 10 mg/kg 4 times a day for 7 days + antibiotics ointment, 3 days later", "result": "The lesion dried, desquamated and became flat"}, {"measurement": "recurrence", "setting": "[6]; 4th case of impetigo, about one year", "result": "no recurrence till now"}, {"measurement": "clinical outcome, skin lesions", "setting": "[6]; 5th case of impetigo, Gr. IV topical corticosteroids, antibiotic ointment, 5 days later", "result": "some small erosions around their month and some vesiculopapules over the erythematosus eyelids"}, {"measurement": "recurrence", "setting": "[6]; 5th case of impetigo, about 14 months", "result": "no recurrence till now"}]}
{"smiles": "CC(C)C(N)C(=O)OCCOCn1cnc2c(=O)nc(N)[nH]c21", "note": "(centres unmarked) [Valacyclovir, 2-[(2-amino-6-oxo-6,9-dihydro-3H-purin-9-yl)methoxy]ethyl-2-amino-3-methylbutanoate]", "values": [{"measurement": "hair regrowth", "setting": "[2]; 1st case of alopecia, about 7 weeks after they finished Valacyclovir 2 tablets daily for 5 days", "result": "New hairs including black hairs increased a lot"}, {"measurement": "clinical outcome, pustule", "setting": "[2]; 2nd case of alopecia, Valacyclovir 1 tablets daily for 95 days + anti-allergic agent + Acyclovir ointment for 6 weeks, a week later", "result": "The pustule disappeared"}, {"measurement": "clinical outcome, atrophic plague", "setting": "[2]; 2nd case of alopecia, same regimen, 2 weeks later", "result": "nearly no change on the atrophic plague"}, {"measurement": "hair regrowth", "setting": "[2]; 2nd case of alopecia, same regimen, 4 weeks later", "result": "hair increased obviously on the right side and posterior aspect"}, {"measurement": "hair regrowth", "setting": "[2]; 2nd case of alopecia, same regimen, 16 weeks later", "result": "New black hairs (circle) were observed and no more alopecia on the right side"}, {"measurement": "clinical outcome, vesicles and swelling of forearm", "setting": "[3]; CASE 5, 2 days after Valacyclovir granule", "result": "Most of the vesicles became crusts and the swelling of their forearm improved a lot"}, {"measurement": "clinical outcome, anterior chest", "setting": "[3]; [9]", "result": "only few vesiculopapules over their anterior chest"}, {"measurement": "clinical outcome, lower abdomen", "setting": "[3]; [9]", "result": "nearly no punched out erosions over their lower abdomen"}, {"measurement": "recurrence", "setting": "[3]; Case 9, follow-up after treatment", "result": "no recurrence for 2 years"}, {"measurement": "clinical outcome, vesicles", "setting": "[3]; Case 9, with anti-allergic agent, 3 days after treatment", "result": "the roofs of the vesicles detached and became crusted erosions"}, {"measurement": "clinical outcome, skin lesion", "setting": "[3]; Case 9, with anti-allergic agent, 7 days later", "result": "healed completely"}, {"measurement": "clinical outcome, erosions and oozing", "setting": "[7]; 1st case of pyoderma gangrenosum, Valacyclovir 3 tablets daily for 10 days + anti-allergic agent, antibiotics ointment, Gr. III topical CS, 10 days later", "result": "no more erosions and oozing"}, {"measurement": "clinical outcome, red swollen fingers with pain", "setting": "[5]; after 2nd prescriptions: Valacyclovir 1 tablets daily for 14 days + anti-allergic agent + ADO ointment 2 time daily", "result": "improved"}, {"measurement": "clinical outcome, red swollen fingers with pain", "setting": "[5]; after 3rd prescriptions: Valacyclovir 1 tablets daily for 14 days + anti-allergic agent + ADO ointment 2 time daily", "result": "nearly cured"}, {"measurement": "clinical outcome, pustules and inflammation", "setting": "[8]; 1st case of acne, Valacyclovir 2 tablets daily for 5 days + Nadifloxacin cream, 5 days later", "result": "The number of the pustules and the extent of inflammation decreased"}, {"measurement": "clinical outcome, pustules", "setting": "[8]; 2nd case of acne, Valacyclovir 2 tablets daily for 5 days + ADO ointment, 8 days later", "result": "Nearly no pustules were seen"}, {"measurement": "clinical outcome, inflammation and comedoes", "setting": "[8]; 3rd case of acne, Valacyclovir 2 tablets daily for 5 days per month + ADO ointment, 23 days later", "result": "The severe inflammation on the nose and over the left cheek decreased a lot"}, {"measurement": "clinical outcome, pustules", "setting": "[8]; 4th case of acne, Valacyclovir 2 tablets daily for 5 days + anti-allergic agent + Gr. IV topical CS, 2 days later", "result": "Not only the number but also the size of the pustules decreased a lot"}, {"measurement": "recurrence", "setting": "[8]; 4th case of acne, after completed medication, about one year", "result": "no recurrence till now"}, {"measurement": "clinical outcome, symptoms", "setting": "[8]; 5th case of acne, Valacyclovir 2 tablets daily for 5 days + antibiotics 2 days + Nadifloxacin cream", "result": "Symptoms have significantly improved"}, {"measurement": "clinical outcome, symptoms", "setting": "[8]; 6th case of acne, Valacyclovir 2 tablets daily for 5 days + Nadifloxacin cream + Gr. IV topical CS", "result": "Symptoms have significantly improved"}, {"measurement": "clinical outcome, vesicles", "setting": "[6]; 3rd case of impetigo, Valacyclovir 2 tablets daily + anti-allergic agent, 3 days after the treatment", "result": "the vesicles found over their left neck 6 days ago collapsed"}, {"measurement": "clinical outcome, symptoms", "setting": "[6]; 3rd case of impetigo, Valacyclovir 2 tablets daily for 7 days + anti-allergic agent + antibiotics 2 days, 7 days later", "result": "Symptoms have significantly improved"}]}
{"smiles": "C[C@]12C=CC(=O)C=C1CC[C@@H]1[C@@H]2[C@@H](O)C[C@@]2(C)[C@H]1CC[C@]2(O)C(=O)CO", "note": "[prednisolone]", "values": [{"measurement": "clinical outcome, symptoms", "setting": "[7]; 2nd case of pyoderma gangrenosum with ulcerative colitis, oral prednisolone 40 mg tapered + gentamycin ointment + mesalazine, no antiviral, 13 days later", "result": "Symptoms have significantly improved"}]}
